Measured values from patent US7135470B2, “Thienopyridazines as IKK inhibitors” (Roche Palo Alto LLC, priority 2004, dated 2006).

Biological target: T1, purified recombinant human IKKb (Homo sapiens, UniProt O14920)
T1 sequence (O14920 1-756): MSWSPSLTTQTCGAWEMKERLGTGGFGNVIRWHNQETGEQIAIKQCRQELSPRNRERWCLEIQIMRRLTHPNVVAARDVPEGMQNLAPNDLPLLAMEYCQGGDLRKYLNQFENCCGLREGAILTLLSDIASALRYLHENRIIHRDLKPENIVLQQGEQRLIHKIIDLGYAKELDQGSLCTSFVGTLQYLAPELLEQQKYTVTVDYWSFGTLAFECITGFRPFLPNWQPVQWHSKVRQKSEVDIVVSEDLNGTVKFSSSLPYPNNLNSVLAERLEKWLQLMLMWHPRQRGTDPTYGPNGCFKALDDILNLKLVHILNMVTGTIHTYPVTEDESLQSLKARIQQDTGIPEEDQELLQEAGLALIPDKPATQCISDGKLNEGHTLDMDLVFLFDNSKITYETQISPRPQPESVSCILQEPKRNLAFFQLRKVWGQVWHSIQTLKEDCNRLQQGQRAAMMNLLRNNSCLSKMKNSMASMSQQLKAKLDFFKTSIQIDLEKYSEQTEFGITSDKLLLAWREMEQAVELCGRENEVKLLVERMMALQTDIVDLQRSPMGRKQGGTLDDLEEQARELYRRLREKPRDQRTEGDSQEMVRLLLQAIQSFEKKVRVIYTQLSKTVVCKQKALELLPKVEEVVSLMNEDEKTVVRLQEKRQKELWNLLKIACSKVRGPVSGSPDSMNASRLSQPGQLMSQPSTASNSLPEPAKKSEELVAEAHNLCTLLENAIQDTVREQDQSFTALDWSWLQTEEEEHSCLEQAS
Test: IKKb kinase assay, incorporation of radiolabeled 33P gATP into Biotin-peptide substrate derived from IkB-alpha
Type: biochemical
Conditions: recombinant human IKKb 25 nM, ATP 10 μM, peptide substrate 30 μM, 30 minutes at 30° C.
Method: This example describes an assay that is useful in evaluating and selecting a compound that modulates IKK. The assay measures the incorporation of radiolabeled ^33P gATP into the Biotin-peptide kinase substrate, derived from the IkB-alpha sequence.
In a 40 ul volume, 26 ul of ADB diluted, purified recombinant human IKKb [25 nM] was mixed with 4 ul 10× concentration of test compounds, [usually 100 uM–0.003 uM], [10%] DMSO and incubated for 10 minutes at room temperature. The kinase reaction was initiated by the addition of 10 ul 4× substrate cocktail containing the peptide substrate [0 or 30 μM] ATP [10 μM], and ^33PgATP [2uCi/rxn]. After 30 minutes of incubation at 30° C., the reaction was terminated by the transfer of 25 ul reaction sample to a phosphocellulose membrane/plate containing 150 ul 0.75% phosphoric acid.
On the following day, the free radionucleotides in the phosphocellulose membrane were washed under vacuum with 3×200 ul of 0.75% phosphoric acid. After the last wash membrane/plates were transferred to an adoptor plate and 70 ul of scintillation cocktail was added to each well. After four hours, the amount of radioactivity for each well was counted in a top counter.

- IC50: < 1 µM
SMILES: NC(=O)c1nnc(N)c2cc(-c3ccc(F)cc3)sc12 [Compound 3, 4-Amino-2-(4-fluoro-phenyl)-thieno[2,3-d]pyridazine-7-carboxylic acid amide]
